Experimental data as given in the CheMixHub viscosity set.

Assay: xn = mol fraction of the nth substance listed

O=[N+]([O-])c1ccccc1 + COc1ccccc1
Conditions | viscosity [mPa·s]
293.15 K, 101.33 kPa, x2 = 0.0982 | 1.864
293.15 K, 101.33 kPa, x2 = 0.1946 | 1.72
293.15 K, 101.33 kPa, x2 = 0.2868 | 1.597
293.15 K, 101.33 kPa, x2 = 0.3929 | 1.478
293.15 K, 101.33 kPa, x2 = 0.5767 | 1.407
293.15 K, 101.33 kPa, x2 = 0.6086 | 1.289
293.15 K, 101.33 kPa, x2 = 0.7073 | 1.23
293.15 K, 101.33 kPa, x2 = 0.8086 | 1.167
293.15 K, 101.33 kPa, x2 = 0.9081 | 1.117
298.15 K, 101 kPa, x2 = 0.1 | 1.556
298.15 K, 101 kPa, x2 = 0.2022 | 1.561
298.15 K, 101 kPa, x2 = 0.3039 | 1.454
298.15 K, 101 kPa, x2 = 0.3968 | 1.368
298.15 K, 101 kPa, x2 = 0.5018 | 1.281
298.15 K, 101 kPa, x2 = 0.6021 | 1.204
298.15 K, 101 kPa, x2 = 0.7032 | 1.146
298.15 K, 101 kPa, x2 = 0.8267 | 1.068
298.15 K, 101 kPa, x2 = 0.9043 | 1.045
298.15 K, 101.33 kPa, x2 = 0.0982 | 1.703
298.15 K, 101.33 kPa, x2 = 0.1946 | 1.613
298.15 K, 101.33 kPa, x2 = 0.2868 | 1.468
298.15 K, 101.33 kPa, x2 = 0.3929 | 1.371
298.15 K, 101.33 kPa, x2 = 0.5767 | 1.294
298.15 K, 101.33 kPa, x2 = 0.6086 | 1.201
298.15 K, 101.33 kPa, x2 = 0.7073 | 1.153
298.15 K, 101.33 kPa, x2 = 0.8086 | 1.074
298.15 K, 101.33 kPa, x2 = 0.9081 | 1.048
303.15 K, 101 kPa, x2 = 0.0972 | 1.555
303.15 K, 101 kPa, x2 = 0.1 | 1.43
303.15 K, 101 kPa, x2 = 0.1829 | 1.437
303.15 K, 101 kPa, x2 = 0.2022 | 1.443
303.15 K, 101 kPa, x2 = 0.2642 | 1.341
303.15 K, 101 kPa, x2 = 0.3039 | 1.339
303.15 K, 101 kPa, x2 = 0.3916 | 1.224
303.15 K, 101 kPa, x2 = 0.3968 | 1.263
303.15 K, 101 kPa, x2 = 0.4829 | 1.147
303.15 K, 101 kPa, x2 = 0.5018 | 1.186
303.15 K, 101 kPa, x2 = 0.583 | 1.08
303.15 K, 101 kPa, x2 = 0.6021 | 1.115
303.15 K, 101 kPa, x2 = 0.6854 | 1.022
303.15 K, 101 kPa, x2 = 0.7032 | 1.064
303.15 K, 101 kPa, x2 = 0.7963 | 0.981
303.15 K, 101 kPa, x2 = 0.8267 | 0.9924
303.15 K, 101 kPa, x2 = 0.8977 | 0.96
303.15 K, 101 kPa, x2 = 0.9043 | 0.9678
308.15 K, 101 kPa, x2 = 0.1 | 1.317
308.15 K, 101 kPa, x2 = 0.2022 | 1.326
308.15 K, 101 kPa, x2 = 0.3039 | 1.236
308.15 K, 101 kPa, x2 = 0.3968 | 1.165
308.15 K, 101 kPa, x2 = 0.5018 | 1.096
308.15 K, 101 kPa, x2 = 0.6021 | 1.031
308.15 K, 101 kPa, x2 = 0.7032 | 0.9838
308.15 K, 101 kPa, x2 = 0.8267 | 0.92
308.15 K, 101 kPa, x2 = 0.9043 | 0.8978
313.15 K, 101 kPa, x2 = 0.1 | 1.217
313.15 K, 101 kPa, x2 = 0.2022 | 1.224
313.15 K, 101 kPa, x2 = 0.3039 | 1.142
313.15 K, 101 kPa, x2 = 0.3968 | 1.078
313.15 K, 101 kPa, x2 = 0.5018 | 1.013
313.15 K, 101 kPa, x2 = 0.6021 | 0.9572
313.15 K, 101 kPa, x2 = 0.7032 | 0.9119
313.15 K, 101 kPa, x2 = 0.8267 | 0.8533
313.15 K, 101 kPa, x2 = 0.9043 | 0.8343

c1ccccc1 + CN(C)C=O
298.15 K
Conditions | viscosity [mPa·s]
101 kPa, x1 = 0.0257 | 0.799
101 kPa, x1 = 0.0509 | 0.795
101 kPa, x1 = 0.1031 | 0.783
101 kPa, x1 = 0.1578 | 0.765
101 kPa, x1 = 0.2083 | 0.759
101 kPa, x1 = 0.2579 | 0.75
101 kPa, x1 = 0.3129 | 0.7455
101 kPa, x1 = 0.3651 | 0.739
101 kPa, x1 = 0.4202 | 0.725
101 kPa, x1 = 0.469 | 0.711
101 kPa, x1 = 0.5167 | 0.7175
101 kPa, x1 = 0.5779 | 0.7
101 kPa, x1 = 0.6247 | 0.697
101 kPa, x1 = 0.6758 | 0.6825
101 kPa, x1 = 0.7167 | 0.671
101 kPa, x1 = 0.7855 | 0.653
101 kPa, x1 = 0.8262 | 0.643
101 kPa, x1 = 0.8944 | 0.6255
101 kPa, x1 = 0.9372 | 0.615
101 kPa, x1 = 0.9409 | 0.614
101 kPa, x1 = 0.9761 | 0.605
101.33 kPa, x1 = 0.1225 | 0.7645
101.33 kPa, x1 = 0.2494 | 0.7375
101.33 kPa, x1 = 0.4823 | 0.6925
101.33 kPa, x1 = 0.6236 | 0.6672
101.33 kPa, x1 = 0.7499 | 0.6477
101.33 kPa, x1 = 0.8733 | 0.6245

CC12CC3CC(C)(C1)CC(C)(C3)C2 + CCCCCCCCCCC
viscosity [mPa·s], 100 kPa
Conditions | x1 = 0.1004 | x1 = 0.1998 | x1 = 0.3004 | x1 = 0.4006 | x1 = 0.4992 | x1 = 0.6045 | x1 = 0.7008 | x1 = 0.8138 | x1 = 0.9014
293.15 K | 1.267 | 1.341 | 1.419 | 1.514 | 1.628 | 1.772 | 1.935 | 2.161 | 2.369
298.15 K | 1.16 | 1.227 | 1.294 | 1.374 | 1.47 | 1.595 | 1.737 | 1.939 | 2.134
303.15 K | 1.071 | 1.121 | 1.187 | 1.264 | 1.351 | 1.463 | 1.589 | 1.762 | 1.926
308.15 K | 0.987 | 1.038 | 1.095 | 1.165 | 1.246 | 1.348 | 1.46 | 1.612 | 1.76
313.15 K | 0.92 | 0.965 | 1.019 | 1.083 | 1.152 | 1.241 | 1.34 | 1.475 | 1.605
318.15 K | 0.86 | 0.9 | 0.948 | 1.006 | 1.073 | 1.155 | 1.245 | 1.369 | 1.48
323.15 K | 0.802 | 0.843 | 0.889 | 0.943 | 1.001 | 1.073 | 1.153 | 1.261 | 1.362

ClC(Cl)=C(Cl)Cl + CO
viscosity [mPa·s], 101.33 kPa
Conditions | x2 = 0.1436 | x2 = 0.2974 | x2 = 0.456 | x2 = 0.6044 | x2 = 0.7514 | x2 = 0.9006
293.15 K | 0.762 | 0.721 | 0.683 | 0.639 | 0.585 | 0.535
303.15 K | 0.705 | 0.667 | 0.63 | 0.59 | 0.552 | 0.512
313.15 K | 0.6515 | 0.622 | 0.592 | 0.561 | 0.529 | 0.497
